We go through three compounds from PMC9785542, “Discovery of 1-Benzhydryl-Piperazine-Based HDAC Inhibitors with Anti-Breast Cancer Activity: Synthesis, Molecular Modeling, In Vitro and In Vivo Biological Evaluation” (Pharmaceutics, 2022).

The target in data set [1] is T1, Human recombinant N-ter-GST-HDAC-6 (Homo sapiens, UniProt Q9UBN7).
T1 sequence (Q9UBN7 1-1215): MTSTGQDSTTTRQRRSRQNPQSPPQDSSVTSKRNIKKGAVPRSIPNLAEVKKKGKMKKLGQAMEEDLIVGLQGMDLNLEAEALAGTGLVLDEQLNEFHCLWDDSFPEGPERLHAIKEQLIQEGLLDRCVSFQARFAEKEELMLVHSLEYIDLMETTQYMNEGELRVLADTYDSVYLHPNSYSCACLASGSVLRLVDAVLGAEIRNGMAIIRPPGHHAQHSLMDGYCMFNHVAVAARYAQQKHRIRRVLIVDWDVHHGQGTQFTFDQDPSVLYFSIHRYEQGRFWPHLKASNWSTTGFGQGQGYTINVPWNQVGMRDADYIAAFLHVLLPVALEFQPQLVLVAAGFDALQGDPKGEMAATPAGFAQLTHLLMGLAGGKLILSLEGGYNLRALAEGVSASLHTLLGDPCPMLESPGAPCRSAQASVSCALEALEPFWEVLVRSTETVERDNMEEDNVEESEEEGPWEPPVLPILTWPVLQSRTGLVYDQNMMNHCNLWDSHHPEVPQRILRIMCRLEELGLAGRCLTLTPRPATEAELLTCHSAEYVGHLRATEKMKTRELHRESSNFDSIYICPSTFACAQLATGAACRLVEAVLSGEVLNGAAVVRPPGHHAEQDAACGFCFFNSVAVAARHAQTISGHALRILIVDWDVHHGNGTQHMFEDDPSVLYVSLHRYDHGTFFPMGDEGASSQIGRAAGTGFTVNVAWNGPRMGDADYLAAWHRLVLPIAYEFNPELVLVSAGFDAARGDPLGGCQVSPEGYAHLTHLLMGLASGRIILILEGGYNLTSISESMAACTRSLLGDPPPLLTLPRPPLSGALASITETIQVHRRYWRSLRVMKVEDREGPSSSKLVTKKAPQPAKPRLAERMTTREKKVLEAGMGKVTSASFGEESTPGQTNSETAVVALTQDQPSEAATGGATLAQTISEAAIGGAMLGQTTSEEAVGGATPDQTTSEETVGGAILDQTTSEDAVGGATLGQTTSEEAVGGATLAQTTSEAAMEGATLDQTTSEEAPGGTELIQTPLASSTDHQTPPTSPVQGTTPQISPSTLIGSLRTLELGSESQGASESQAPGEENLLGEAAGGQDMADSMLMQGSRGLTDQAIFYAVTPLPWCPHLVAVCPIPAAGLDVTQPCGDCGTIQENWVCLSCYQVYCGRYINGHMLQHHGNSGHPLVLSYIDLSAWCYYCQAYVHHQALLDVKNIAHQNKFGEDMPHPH
Put plainly: HDAC-Glo I/II bioluminogenic enzyme assay, HDAC6. The data set is classed as biochemical. More on the design: GST (N); purchased BPS Bioscience 50006. The following applies: for % HDAC6 Inhibition at 5 μM / inhibition at 5 µM: mean ± standard error of triplicate; for IC50: mean ± SD of three independent experiments, read-out: HDAC Inhibition, IC50 ± SD, HDAC6; for Selectivity Ratio HDAC1/6 / Selectivity Ratio HDAC3/6 / Selectivity Ratio HDAC8/6: ratio of IC50 values.

Data set [2] relates to MDA-MB-231 cells. Put plainly: Apoptosis assay, Annexin V-FITC/7-AAD flow cytometry. The data set is classed as cell-based, human. The following applies: for early apoptotic cells: 72 h. On the procedure: Examined breast cancer cells (MDA-MB-231) were stained with annexin V–fluorescein isothiocyanate/and 7AAD (BD Pharmingen, San Diego, CA, USA), and the samples were prepared following the specifications given by manufacturer. The population of apoptotic cells was analyzed by flow cytometry using a FACS Calibur cytometer and Cell Quest computer software (Becton Dickinson, Heidelberg, Germany).

The subject of data set [3] is MDA-MB-231 cells. The data set is described as follows: Cell viability (MTT) assay, MDA-MB-231. The data set is classed as cell-based, human. The following applies: read-out: Cytotoxic activity IC50 ± SD, MDA-MB-231. On the procedure: (§1) Human breast adenocarcinoma cells (MCF-7, ATCC® HTB-22™) and triple-negative breast cancer cells (MDA-MB-231, ATCC® HTB-26™) were obtained from the American Type Culture Collection (Rockville, MD, USA). Cells were maintained as a monolayer culture in DMEM:Ham’s 12 (1:1) medium (Sigma-Aldrich, St. Louis, MO, USA) supplemented with penicillin (192 U/mL), streptomycin (200 µg/mL), and 10% of heat-inactivated fetal calf serum (FCS). Cells were grown at 37 °C in 5% CO2 and humidified air atmosphere, by twice weekly subculture.
(§2) Cytotoxic activity of synthesized 1-benzhydryl-piperazine-based HDAC inhibitors was assessed on MDA-MB-231 and MCF-7 cells using an MTT assay. MDA-MB-231 (5 × 10^3 cells/well) and MCF-7 (5 × 10^3 cells/well) were treated with synthesized compounds in six different concentrations (100, 50, 25, 12.5, 6.25, and 3.13 μM), and each concentration was added in five replicates. MTT solution (3-(4,5-dimethylthiazol-2-yl)-2,5-diphenyltetrazolium bromide) (Sigma-Aldrich, St. Louis, USA) was added to each well (20 µL) after 48 h. After 4 h of incubation, 100 μL of 10% SDS was added in each well and incubated at 37 °C. On the next day, the absorbance at 570 nm was recorded. The ratio of absorbance (570 nm) values between treated and control cells multiplied by 100 was used to calculate cell survival (%). The concentration of synthesized HDAC inhibitors that reduced cell viability by 50% was defined as the IC50 value, and was compared to the vehicle control.

Another data set relates to MCF-7 cells. Put plainly: Cell viability (MTT) assay, MCF-7. The data set is classed as cell-based. The following applies: Homo sapiens, MCF7, 48 h, read-out: Cytotoxic activity IC50 ± SD, MCF-7. On the procedure: as §1, §2
For data set [4], the system named is MDA-MB-231 cells. Put plainly: Cell cycle analysis, propidium iodide flow cytometry. To be noted: IC50 concentration; for percentage of cells in S phases: 48 h. The data set is classed as cell-based, human. On the procedure: MDA-MB-231 cells were treated with tested compounds for specified time courses. After treatment, examined cells were washed in cold PBS and incubated for 30 min in 96% ethanol on ice, centrifuged, and incubated with 80 μL RNase A ([…]) and 50 μL propidium iodide (50 μg/mL) for 30 min at 37 °C. The cell cycle was analyzed by FACS Calibur E440 (Becton Dickinson) flow cytometer and Cell Quest software. Results are presented as a percentage of cell cycle phases.

Data set [5] has as its target T2, Human recombinant C-ter-His-FLAG-HDAC1 (Homo sapiens, UniProt Q13547).
T2 construct: His (C); FLAG (C); purchased BPS Bioscience 50051
Put plainly: HDAC-Glo I/II bioluminogenic enzyme assay, HDAC1. The data set is classed as biochemical. To be noted: mean ± SD of three independent experiments; read-out: HDAC Inhibition, IC50 ± SD, HDAC1.

The target in data set [6] is Human recombinant HDAC-3/NcoR2 (Homo sapiens, UniProt O15379). Put plainly: HDAC-Glo I/II bioluminogenic enzyme assay, HDAC3. The data set is classed as biochemical. More on the design: purchased BPS Bioscience 50003. The following applies: mean ± SD of three independent experiments; read-out: HDAC Inhibition, IC50 ± SD, HDAC3.
Chain of Human recombinant HDAC-3/NcoR2 (O15379 whole entry): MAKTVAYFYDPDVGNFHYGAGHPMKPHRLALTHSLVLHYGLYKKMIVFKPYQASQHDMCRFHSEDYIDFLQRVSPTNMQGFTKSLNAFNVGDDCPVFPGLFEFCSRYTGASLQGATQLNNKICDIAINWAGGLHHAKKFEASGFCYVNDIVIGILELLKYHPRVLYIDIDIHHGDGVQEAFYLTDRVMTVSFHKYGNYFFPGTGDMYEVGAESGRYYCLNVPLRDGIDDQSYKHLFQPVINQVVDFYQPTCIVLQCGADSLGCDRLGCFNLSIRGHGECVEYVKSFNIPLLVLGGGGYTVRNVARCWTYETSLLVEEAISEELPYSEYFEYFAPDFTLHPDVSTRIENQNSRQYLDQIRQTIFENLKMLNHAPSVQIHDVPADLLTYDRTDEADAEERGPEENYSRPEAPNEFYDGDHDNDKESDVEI
Chain of Human recombinant HDAC-3/NcoR2 (Q9Y618 395-489 partner limits assumed): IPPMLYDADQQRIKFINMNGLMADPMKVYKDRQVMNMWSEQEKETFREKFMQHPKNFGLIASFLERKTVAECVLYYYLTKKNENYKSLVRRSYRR

Structures are written as SMILES. Values joined by “and” are separate entries in the source; they are usually repeats but may differ in a detail not shown here. Equal values may be shown once. Read-outs that look alike come from different tables or passages of the source.

T2 sequence (Q13547 whole entry): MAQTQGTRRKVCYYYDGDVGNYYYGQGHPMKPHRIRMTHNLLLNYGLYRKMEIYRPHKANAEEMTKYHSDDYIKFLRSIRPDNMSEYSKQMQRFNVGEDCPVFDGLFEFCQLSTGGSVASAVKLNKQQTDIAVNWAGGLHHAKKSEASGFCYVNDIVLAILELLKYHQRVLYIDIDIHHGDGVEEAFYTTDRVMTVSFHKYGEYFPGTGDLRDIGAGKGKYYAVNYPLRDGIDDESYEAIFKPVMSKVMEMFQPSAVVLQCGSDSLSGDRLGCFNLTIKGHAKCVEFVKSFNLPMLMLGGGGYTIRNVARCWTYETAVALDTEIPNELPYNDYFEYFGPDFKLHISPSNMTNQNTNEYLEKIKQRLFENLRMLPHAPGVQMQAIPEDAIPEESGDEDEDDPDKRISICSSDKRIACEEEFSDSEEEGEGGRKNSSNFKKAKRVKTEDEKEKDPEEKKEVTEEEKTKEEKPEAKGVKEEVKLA

In the case of `O=C(CCCCCCN1CCN(C(c2ccccc2)c2ccccc2)CC1)NO` [Compound 7b, 7-(4-(diphenylmethyl)-piperazin-1-yl)-N-hydroxyheptanamide], in data set [1], the “% HDAC6 Inhibition at 5 μM” value is listed as 97.1 ± 0.8%, the inhibition at 5 µM is above 90%, the IC50 amounted to 0.096 ± 0.008 µM and the “Selectivity Ratio HDAC1/6” value is 6.4. Moreover, in data set [1], the “Selectivity Ratio HDAC3/6” value was found to be 2.8 and the “Selectivity Ratio HDAC8/6” value is given as 3.6. Besides, in the data set with MDA-MB-231 cells [2] (IC50 concentration, 24 h), the programmed cell death entry was “slight increase”. Moreover, the early apoptotic cells result in the data set with MDA-MB-231 cells [2] (IC50 concentration) was “around 45%”. The IC50 in the data set with MDA-MB-231 cells [3] (Homo sapiens, MDA-MB-231, 48 h) amounted to 10.6 ± 1.95 µM. For the same compound, the IC50 in the data set with MCF-7 cells was above 100 µM. Further, the “percentage of cells in the G2/M phase” value with MDA-MB-231 cells [4] (24 h) is recorded as “slight increase”. Besides, in the data set with MDA-MB-231 cells [4], the “percentage of cells in S phases” value was “increased”. In data set [5], the concentration for half-maximal inhibition (IC50) stood at 0.619 ± 0.023 µM. In addition, the IC50 in data set [6] was determined as 0.267 ± 0.019 µM.

As to `O=C(CCCCCCCN1CCN(C(c2ccccc2)c2ccccc2)CC1)NO` [Compound 8b, 8-(4-(diphenylmethyl)-piperazin-1-yl)-N-hydroxyoctanamide], in data set [1], the “% HDAC6 Inhibition at 5 μM” value was 97.7 ± 0.2%, the inhibition at 5 µM was above 90%, the IC50 worked out at 0.124 ± 0.013 µM and the “Selectivity Ratio HDAC1/6” value is 3.3. Further, in data set [1], the “Selectivity Ratio HDAC3/6” value stood at 1.7 and the “Selectivity Ratio HDAC8/6” value is 2. The “late apoptotic cell population” value in the data set on MDA-MB-231 cells [2] (5 μM, control 1.13%) is 0.45%. Also, the “early apoptotic cell population” value in the data set with MDA-MB-231 cells [2] (5 μM, control 1.27%) was found to be 4.13%. In addition, in the data set on MDA-MB-231 cells [2] (IC50 concentration), the early apoptotic cells entry is “around 45%”. Also, the IC50 in the data set on MDA-MB-231 cells [3] (Homo sapiens, MDA-MB-231, 48 h) is 5.42 ± 0.77 µM. Moreover, in the data set on MCF-7 cells, the IC50 was found to be 39.1 ± 2.7 µM. Also, the “percentage of cells in the G2/M phase” value in the data set with MDA-MB-231 cells [4] (24 h) is recorded as “slight increase”. Further, in the data set with MDA-MB-231 cells [4], the “percentage of cells in S phases” value is on record as “increased”. For the same compound, the half-inhibitory concentration (IC50) in data set [5] was 0.408 ± 0.022 µM. Moreover, the IC50 in data set [6] is 0.207 ± 0.014 µM.

For `O=C(NO)c1ccc(CN2CCN(C(c3ccccc3)c3ccccc3)CC2)cc1` [Compound 9b, 4-(4-(diphenylmethyl)-piperazin-1-ylmethyl)-N-hydroxy-benzamide], the “% HDAC6 Inhibition at 5 μM” value in data set [1] is 96.9 ± 0.3%. The inhibition at 5 µM in data set [1] was above 90%. For the same compound, the IC50 in data set [1] came out at 0.031 ± 0.004 µM; with MDA-MB-231 cells [3] (48 h) it was 38.2 ± 3.01 µM; in the data set with MDA-MB-231 cells [3] (Homo sapiens, MDA-MB-231, 48 h), 38.1 µM; in the data set with MCF-7 cells it was 99.5 ± 0.7 µM; in data set [5], 1.47 ± 0.172 µM; in data set [6], 3.47 ± 0.121 µM. Also, the “Selectivity Ratio HDAC1/6” value in data set [1] worked out at 47.5. Besides, the “Selectivity Ratio HDAC3/6” value in data set [1] was 112 and 111.8. The “Selectivity Ratio HDAC8/6” value in data set [1] was 23. Moreover, the early apoptotic cells entry with MDA-MB-231 cells [2] (IC50 concentration) is on record as “around 45%”. For the same compound, the “percentage of cells in the S phase” value in the data set on MDA-MB-231 cells [4] (24 h) is listed as “increased”. In the data set on MDA-MB-231 cells [4], the “percentage of cells in S phases” value is listed as “increased”.

Usually inhibition stands for the share of the control response that was lost under treatment. As usually defined, the IC50 is the concentration that gives 50% inhibition.
